Measurements published in patent US20250263388A1, “NOVEL COMPOUND BASED ON VALEROLACTONE AND MEDICINE” (priority 2018, published 2025).

Key:
ALS = conditions: cited from earlier work; for efficacy in clinical trials: ALS therapeutic drug candidates
[1] = tested on: SOD1-G93A-introduced N2a cells; assay: Dual-luciferase assay (SOD1-G93A gene introduced into N2a cells); conditions: positive control resveratrol
[2] = tested on: ALS model mice holding SOD1-G93A gene; assay: Motor performance (Rota-rod test) in ALS model mice; format: in vivo, mouse
Method: (§1) ALS model mice holding SOD1-G93A gene were used for the experiment. The first generation mouse was generated by bleeding a 6-week-old SOD1-G93A transgenic male (B6SJL-Tg (SOD1-G93A) 1Gur/J, imported from The Jackson Laboratory, USA) with 8-week-old C57BL/6J female mice (designated as F1 as shown below), and placed in the same cage for 1 week for mating.
Backcrossing was performed using the first backcross SOD1-G93A gene-bearing male mouse (FuBk1) and C57BL/6J female mouse (F1) produced as described above, and the resulting mouse carrying the SOD1-G93A gene was backcrossed with C57BL/6J female mice, which was the second mouse (FuBk2) They were used in the preliminary test described below. […]
(§2) The test substance was evaluated based on two points: the survival days of mice and motor function. Regarding the number of days of survival, the number of days until the mouse was determined to be dead (including surrogate death) was evaluated. Motor function was evaluated by a motor test using the Rota-rod method.
In order to investigate the onset time of ALS-like symptoms in the test subject mouse, the motor function of the mouse was measured once a week by the Rota-rod method using a ROTA-ROD TREADMILL for MICE MK-600 (Muromachi). […] Those who fell twice in 300 seconds or less were regarded as mice showing the symptoms of motor inability, and the latency (seconds) until they fell was also measured. […]

[3] = tested on: ALS model mice holding SOD1-G93A gene; assay: Change in the body weight of ALS model mice, administration test 1; format: in vivo; conditions: 1 mg/kg and 10 mg/kg, oral once a day from 60 days after birth
Method: as §1
(§3) Backcrossing was performed using the first backcross SOD1-G93A gene-bearing male mouse (FuBk1) and C57BL/6J female mouse (F1) produced as described above, and the resulting mouse carrying the SOD1-G93A gene was backcrossed with C57BL/6J female mice, which was the second mouse (FuBk2) They were used in the preliminary test described below. A male mouse (FuBk2) carrying the SOD1-G93A gene was further crossed with an F1 female mouse to prepare a third backcrossed mouse (FuBk3) and a fourth backcrossed mouse (FuBk4), which will be described later as the final examination.
Subject animal: The second backcrossed mice (FuBk2) holding SOD1-G93A were determined by genotyping, and were used for the treatment experiment from 60 days after birth (pre-symptomatic period). A total of 16 animals were used as test animals (n=16).
The test substance dissolved in DMSO was prepared at a concentration shown in Table 12 using a 2.5% DMSO (final concentration) solution as a solvent. […]
The body weight was measured twice a week. […]

[4] = tested on: differentiated NSC-34 cells; assay: ODAP-EA assay (reducing effect on motor excitotoxicity); format: cell-based, mouse
Source text: ODAP-EA assay was invented by the present inventor as a test for measuring the reducing effect on motor exciotoxicity (Kusama-Eguchi K, et. al. Food Chem Toxicol., 49, 636-643 (2011)). In the ODAP-EA assay, differentiated NSC-34 cells were subjected to excitotoxicity in NSC-34 cells by adding ethacrynic acid (EA), which has a mitochondrial glutathione level-lowering effect, and L-β-ODAP, which is a neurotoxic amino acid. Then, the effect of reducing the excitotoxicity of the test substance is evaluated.
NSC34 cells were cultivated in a Rich medium in a […] until they became confluent, and then the Rich medium in the dish was removed. […] The replacement of the Poor medium once a day was repeated about 3 to 5 times to promote the differentiation of NSC-34 cells.
The NSC-34 cells differentiated as described above were suspended in Poor medium and seeded in a 96-well plate at a target concentration of 4×10^4 cells/well at 200 μL/well. […]
Then, 110 μL of the medium in the well plate was removed, 10 μL/well of AlamarBlue™ previously returned to room temperature was added, and the plate was placed in an incubator at 37° C. under 5% CO2 condition. After about 1 hour, the fluorescence intensity (excitation wavelength: 544 nm, fluorescence wavelength: 590 nm) was measured using a fluorescence plate reader. […]

[5] = tested on: ALS model mice holding SOD1-G93A gene; assay: Survival days (Kaplan-Meier) in ALS model mice; format: in vivo, mouse
Method: as §1, §3, §2
A mouse that lost its righting reflex and could not return to the correct posture within 20 seconds was determined to be a surrogate death.
The test results were analyzed by the Kaplan-Meier method, and the p-value and median were obtained by the Log-Rank test or the Wilcoxon test. The latency between control and YY-1 group after developing of the motor inability was analyzed by T-test for each measuring point.
Of the third backcrossed mouse (FuBk3) carrying the SOD1-G93A gene, a total of 51 male and female mice determined to carry the SOD1-G93A gene by genotyping, and were used as test animals.
The test drug was prepared at a concentration shown in Table 14 using a 1% DMSO+2% Tween 20 solution as a solvent. The test substance was orally administered to mice using a sterilized disposable sonde. According to Table 13 above, the test substance in an amount corresponding to the body weight was […] administered to the mouse.
A total of 52 determined female mice were used as test animals.
The test substance was administered to the mouse once a day from 105 days after birth using a sterilized disposable oral probe at 0.1 mL/10 g (body weight) (10 mg/kg).

NSC-34 cells = assay: ROS assay; format: cell-based, mouse
Method: The ROS assay is a test in which the test substances are evaluated for their ability to eliminate the ROS produced by a cell under stress. The ROS assay was performed by culturing NSC-34 cells in a medium from which serum (FBS) had been removed, and measuring the increased ROS produced at that time using CM-H2DCFDA.
NSC-34 cells were suspended in phenol red free DMEM medium, and NSC-34 cells were seeded at a target concentration of 4×10^4 cells/well in a 96-well plate at 200 μL/well.
Then, the medium was completely removed from the 96-well plate, DMEM ([-] phenol red) was added at 200 μL/well, and then the test substance dissolved in DMSO (or solvent only) was added at 0.4 μL/well. […] And placed in the incubator for 1 hour. One hour later, the fluorescence intensity (excitation wavelength 485 nm, fluorescence wavelength 520 nm) was measured using a fluorescence microplate reader.
The test was performed 2 to 4 times in quadruplicate. As a positive control, 30 μg/mL (120 μM) trolox was used. From the measurement result obtained with the test substance, the relative intensity to trolox was calculated by the following formula (1).

[6] = 5 mg/kg oral once a day from about 45 days after birth, FuBk3 mice, tendency, p=0.090
[7] = 10 mg/kg oral once a day from 105 days after birth, FuBk4 mice, p=0.029

## CC(=O)N[C@@H](CS)C(=O)O [N-acetylcysteine]
ALS
  efficacy in clinical trials: no efficacy

## N[C@@H](CCC(=O)N[C@@H](CS)C(=O)NCC(=O)O)C(=O)O [glutathione]
ALS
  efficacy in clinical trials: no efficacy

## C/C=C/C=C/[C@H]1OC(=O)CC[C@@H]1O [YY-1, (5S,6R)-5-hydroxy-6-[(1E,3E)-penta-1,3-dien-1-yl] tetrahydro-2H-pyran-2-one]
[1]; 0.1 μg/mL (0.55 μM)
  luminescence intensity in excess of the positive control: about 40%
[1]; 1 μg/mL (5.5 μM)
  luminescence intensity in excess of the positive control: about 40%
[2]; 5 mg/kg oral once a day from about 45 days after birth, FuBk3 mice, tendency, p=0.12
  prolongation of development of motor disability vs control, median: 7 days
[2]; 10 mg/kg oral once a day from 105 days after birth, FuBk4 mice
  delay effect in motor dysfunction: about 7 days
[3]
  toxicity to the ALS model mouse (presumed from body weight): no or low toxicity
[3]; FuBk2 male mice
  body weight change: no significant weight loss
[4]; 0.1 to 3.0 μg/mL (0.55 to 16.5 μM)
  relative strength with respect to 4 mM NAC (highest): ≤ 20%
[4]; all concentrations of 0.1 to 100 μg/mL (0.55 to 550 μM)
  ODAP-EA toxicity-reducing effect: strong ODAP-EA toxicity-reducing effect
[5]; [6]
  extension of survival days vs control, average value: about 5 days
  extension of survival days vs control, median value: 8 days
[5]; [7]
  prolongation of survival days vs control, mean value: about 6 days
  prolongation of survival days vs control, median value: 5 days
NSC-34 cells; relative to 30 μg/mL (120 μM) trolox, serum-free medium, test substance 10, 30 or 100 μg/mL
  ROS scavenging action relative to trolox: about 20%
NSC-34 cells; same concentration as 322-Ext
  ROS assay activity relative to 322-Ext at the same concentration: about 40%

## C/C1=C2/[N-][C@H]([C@H](CC(N)=O)[C@@]2(C)CCC(=O)NC[C@@H](C)OP(=O)([O-])O[C@H]2[C@@H](O)[C@@H](n3cnc4cc(C)c(C)cc43)O[C@@H]2CO)[C@]2(C)N=C(/C(C)=C3N=C(/C=C4N=C1[C@@H](CCC(N)=O)C\4(C)C)[C@@H](CCC(N)=O)[C@]\3(C)CC(N)=O)[C@@H](CCC(N)=O)[C@]2(C)CC(N)=O.[CH3-].[Co+3] [methylcobalamin]
ALS
  efficacy in clinical trials: no efficacy

## IGF-1: Insulin-like growth factor-1, protein expected to have an action of preventing motor nerve loss
ALS; Non-Patent Document 5
  outcome of clinical trials (Phase 3): unsuccessful

## COC1=C(OC)C(=O)C(C/C=C(\C)CC/C=C(\C)CC/C=C(\C)CC/C=C(\C)CC/C=C(\C)CC/C=C(\C)CC/C=C(\C)CC/C=C(\C)CC/C=C(\C)CCC=C(C)C)=C(C)C1=O [coenzyme Q10]
ALS
  efficacy in clinical trials: no efficacy
